Patent publication US20100061982A1, “3-SUBSTITUTED-1H-INDOLE, 3-SUBSTITUTED-1H-PYRROLO[2,3-B]PYRIDINE AND 3-SUBSTITUTED-1H-PYRROLO[3,2-B]PYRIDINE COMPOUNDS, THEIR USE AS MTOR KINASE AND PI3 KINASE INHIBITORS, AND THEIR SYNTHESES” (priority 2008, published 2010)
In brackets after ≈: the same amount, converted by molar mass. Where two headings read alike, the source gives them in different places.

Assays:
PI3K alpha = PI3K alpha (Homo sapiens, UniProt P42336); experiment: PI3K-alpha Fluorescence Polarization Assay; format: biochemical
[1] = PAMPA permeability pH 7.4
[2] = Microsome Stability (15 min), nude mouse; format: in vitro ADME; conditions: microsomes
[3] = Microsome Stability (15 min), human; format: in vitro ADME; conditions: microsomes
Solubility pH 7.4 = conditions: pH 7.4, aqueous buffer
[4] = Microsome Stability (15 min), rat; format: in vitro ADME; conditions: microsomes, Phase I (NADPH), read-out: Microsome Stability (15 min) T ½ Phase I rat
[5] = CACO2 permeability a-b/b-a; format: in vitro ADME; conditions: human, Caco-2; for Papp A→B: a − b (first value of cell), read-out: CACO2 Pe a − b; for Papp B→A: b − a (second value of cell), read-out: CACO2 Pe b − a
mTOR = mTOR (Homo sapiens, UniProt P42345); experiment: mTOR Enzyme Assay (DELFIA, purified enzyme); format: biochemical; parameters: FLAG
[6] = Buffer Stability (37° C.)
[7] = Plasma Stability (37° C.), rat
[8] = In vivo blood/plasma and tumor levels of prodrug and metabolites after 50 mg, kg po; conditions: 50 mg
[9] = nude, mouse, Phase I (NADPH), read-out: Microsome Stability (15 min) T ½ Phase I nude mouse
[10] = Phase I (NADPH), read-out: Microsome Stability (15 min) T ½ Phase I human
[11] = value after the slash in Table VIc, read-out: Microsome Stability (15 min) T ½ human, second value of cell
[12] = Phase I (NADPH), read-out: Microsome Stability (15 min) T ½ Phase I nude mouse

Sequence of PI3K alpha (P42336 whole entry, species assumed): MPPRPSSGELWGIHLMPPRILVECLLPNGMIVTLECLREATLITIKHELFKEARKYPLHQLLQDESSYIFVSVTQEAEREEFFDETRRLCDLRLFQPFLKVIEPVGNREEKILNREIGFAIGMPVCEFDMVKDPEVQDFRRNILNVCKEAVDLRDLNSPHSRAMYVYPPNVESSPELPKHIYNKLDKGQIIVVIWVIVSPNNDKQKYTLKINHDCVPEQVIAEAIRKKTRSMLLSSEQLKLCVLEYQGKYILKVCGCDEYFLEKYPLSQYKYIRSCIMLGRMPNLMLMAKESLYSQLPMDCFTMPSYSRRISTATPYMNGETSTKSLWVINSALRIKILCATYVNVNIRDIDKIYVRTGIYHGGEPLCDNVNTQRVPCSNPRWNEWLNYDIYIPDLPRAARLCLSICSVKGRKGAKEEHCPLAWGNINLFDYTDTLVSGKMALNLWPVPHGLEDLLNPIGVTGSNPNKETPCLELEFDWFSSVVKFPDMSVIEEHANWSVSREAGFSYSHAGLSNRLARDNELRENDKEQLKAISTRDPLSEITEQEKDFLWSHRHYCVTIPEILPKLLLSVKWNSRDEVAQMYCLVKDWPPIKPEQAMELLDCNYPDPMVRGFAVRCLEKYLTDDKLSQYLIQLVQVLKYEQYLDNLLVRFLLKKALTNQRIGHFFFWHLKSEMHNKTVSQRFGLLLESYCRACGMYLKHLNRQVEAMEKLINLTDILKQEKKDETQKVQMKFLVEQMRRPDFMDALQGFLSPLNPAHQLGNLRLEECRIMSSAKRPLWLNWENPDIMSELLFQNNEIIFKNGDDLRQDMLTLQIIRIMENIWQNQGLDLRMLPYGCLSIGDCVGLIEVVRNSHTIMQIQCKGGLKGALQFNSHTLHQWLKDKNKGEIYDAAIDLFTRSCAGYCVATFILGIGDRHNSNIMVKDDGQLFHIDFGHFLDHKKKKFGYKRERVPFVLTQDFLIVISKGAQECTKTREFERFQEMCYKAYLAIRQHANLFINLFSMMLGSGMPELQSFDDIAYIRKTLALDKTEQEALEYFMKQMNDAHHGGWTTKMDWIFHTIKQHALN
Sequence of PI3K alpha (P27986 whole entry partner, species assumed): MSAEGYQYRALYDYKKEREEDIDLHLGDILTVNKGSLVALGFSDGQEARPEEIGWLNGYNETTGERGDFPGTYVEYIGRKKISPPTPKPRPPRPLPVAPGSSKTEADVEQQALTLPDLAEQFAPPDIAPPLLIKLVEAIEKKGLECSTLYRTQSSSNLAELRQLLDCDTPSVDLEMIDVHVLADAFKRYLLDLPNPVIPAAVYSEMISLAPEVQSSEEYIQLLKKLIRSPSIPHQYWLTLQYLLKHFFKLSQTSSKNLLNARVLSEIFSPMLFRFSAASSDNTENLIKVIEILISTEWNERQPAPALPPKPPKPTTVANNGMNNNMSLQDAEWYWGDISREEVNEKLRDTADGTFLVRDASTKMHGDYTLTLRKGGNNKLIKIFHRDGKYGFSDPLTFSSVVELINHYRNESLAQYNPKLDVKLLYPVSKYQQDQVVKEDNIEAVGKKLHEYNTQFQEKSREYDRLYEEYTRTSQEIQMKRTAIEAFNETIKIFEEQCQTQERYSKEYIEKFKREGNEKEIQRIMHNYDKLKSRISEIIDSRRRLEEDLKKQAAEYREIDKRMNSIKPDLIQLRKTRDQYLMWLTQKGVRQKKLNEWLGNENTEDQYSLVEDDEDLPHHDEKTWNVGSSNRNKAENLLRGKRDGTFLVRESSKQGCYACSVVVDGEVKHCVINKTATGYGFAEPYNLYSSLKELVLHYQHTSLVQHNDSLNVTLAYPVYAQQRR

Cn1cc(/C=C2\Oc3cc(O)cc(O)c3C2=O)c2c(-c3ccccc3)ccnc21 [(2Z)-4,6-dihydroxy-2-[(1-methyl-4-phenyl-1H-pyrrolo[2,3-b]pyridin-3-yl)methylene]-1-benzofuran-3(2H)-one]
IC50 (PI3K alpha; read-out: PI3K alpha Mean IC50): 0.0628 µM | PAMPA Pe [1]: 0.09 10e−6 cm/s | half-life [2, 9]: 30 min | half-life ([2]; nude, mouse, value after the slash in Table VIc, read-out: Microsome Stability (15 min) T ½ nude mouse, second value of cell): 2 min | half-life [3, 10]: > 30 min | half-life [3, 11]: 6 min | solubility (Solubility pH 7.4): 1 µg/mL (≈ 2.6 µM) | half-life [4]: > 30 min | Papp A→B [5]: 66.3 ×10⁻⁶ cm/s | Papp B→A [5]: 58.1 ×10⁻⁶ cm/s

Cn1cc(/C=C2\Oc3cccc(O)c3C2=O)c2c(N3CC4CCC(C3)O4)ccnc21 [(2Z)-4-hydroxy-2-{[1-methyl-4-(8-oxa-3-azabicyclo[3.2.1]oct-3-yl)-1H-pyrrolo[2,3-b]pyridin-3-yl]methylene}-1-benzofuran-3(2H)-one]
PAMPA Pe [1]: 0.79 10e−6 cm/s | half-life [2, 9]: 13 min | half-life [3, 10]: 28 min | half-life [3, 11]: 3 min | half-life [4]: 2 min | Papp A→B [5]: 5.5 ×10⁻⁶ cm/s | Papp B→A [5]: 8.1 ×10⁻⁶ cm/s

COc1ccc2c(c1)c(/C=C1\Oc3ccc(O)cc3C1=O)c(C)n2CCN1CCN(C)CC1 [(2Z)-5-hydroxy-2-({5-methoxy-2-methyl-1-[2-(4-methylpiperazin-1-yl)ethyl]-1H-indol-3-yl}methylene)-1-benzofuran-3(2H)-one]
IC50 (mTOR; read-out: mTOR Mean IC50): 1.05 µM

COc1ccc2c(c1)c(/C=C1\Oc3cc(OC(=O)C(C)(C)C)cc(OC(=O)C(C)(C)C)c3C1=O)cn2CCCN(C)C [Example 14, (2Z)-2-({1-[3-(dimethylamino)propyl]-5-methoxy-1H-indol-3-yl}methylene)-3-oxo-2,3-dihydro-1-benzofuran-4,6-diyl bis(2,2-dimethylpropanoate)]
PAMPA Pe [1]: 0 10e−6 cm/s | half-life [2, 9]: 2 min | Buffer Stability (37° C.) % Remaining (at 16-23 hours) SGF [6]: 94% | Buffer Stability (37° C.) % Remaining (at 16-23 hours) SIF [6]: 0% | Buffer Stability (37° C.) % Remaining (at 16-23 hours) pH 1 [6]: 89% | Buffer Stability (37° C.) % Remaining (at 16-23 hours) pH 4.5 [6]: 98% | Buffer Stability (37° C.) % Remaining (at 16-23 hours) pH 6.6 [6]: 79% | Buffer Stability (37° C.) % Remaining (at 16-23 hours) pH 7.4 [6]: 20% | Buffer Stability (37° C.) % Remaining (at 16-23 hours) pH 9 [6]: 0% | half-life [3, 10]: 21 min | solubility (Solubility pH 7.4): 1 µg/mL (≈ 1.73 µM) | half-life [4]: 3 min

COc1ccc2[nH]c(-c3ccccc3)c(/C=C3\Oc4cc(OC(=O)c5ccccc5)ccc4C3=O)c2c1 [Example 17, (2Z)-2-[(5-methoxy-2-phenyl-1H-indol-3-yl)methylene]-3-oxo-2,3-dihydro-1-benzofuran-6-yl benzoate]
IC50 (PI3K alpha; read-out: PI3K alpha Mean IC50): 0.157 µM | PAMPA Pe [1]: 0 10e−6 cm/s | half-life [2, 9]: > 30 min | Buffer Stability (37° C.) % Remaining (at 16-23 hours) SGF [6]: 96% | Buffer Stability (37° C.) % Remaining (at 16-23 hours) SIF [6]: 0% | Buffer Stability (37° C.) % Remaining (at 16-23 hours) pH 1 [6]: 95% | Buffer Stability (37° C.) % Remaining (at 16-23 hours) pH 4.5 [6]: 93% | Buffer Stability (37° C.) % Remaining (at 16-23 hours) pH 6.6 [6]: 95% | Buffer Stability (37° C.) % Remaining (at 16-23 hours) pH 7.4 [6]: 32% | Buffer Stability (37° C.) % Remaining (at 16-23 hours) pH 9 [6]: 0% | half-life [3, 10]: 4 min | solubility (Solubility pH 7.4): 4 µg/mL (≈ 8.2 µM) | half-life [4]: 5 min | Plasma Stability (37° C.) % Remaining (3-3.5 hours) rat [7]: 2%

COc1ccc2[nH]c(-c3ccccc3)c(/C=C3\Oc4cc(OC(=O)Oc5ccccc5)cc(OC(=O)Oc5ccccc5)c4C3=O)c2c1 [Example 23, (2Z)-2-[(5-methoxy-2-phenyl-1H-indol-3-yl)methylene]-3-oxo-2,3-dihydro-1-benzofuran-4,6-diyl diphenyl biscarbonate]
IC50 (PI3K alpha; read-out: PI3K alpha Mean IC50): 0.01 µM | PAMPA Pe [1]: 0 10e−6 cm/s | Buffer Stability (37° C.) % Remaining (at 16-23 hours) SGF [6]: 0% | Buffer Stability (37° C.) % Remaining (at 16-23 hours) SIF [6]: 0% | Buffer Stability (37° C.) % Remaining (at 16-23 hours) pH 1 [6]: 0% | Buffer Stability (37° C.) % Remaining (at 16-23 hours) pH 4.5 [6]: 0% | Buffer Stability (37° C.) % Remaining (at 16-23 hours) pH 6.6 [6]: 0% | Buffer Stability (37° C.) % Remaining (at 16-23 hours) pH 7.4 [6]: 0% | Buffer Stability (37° C.) % Remaining (at 16-23 hours) pH 9 [6]: 0% | half-life [3, 10]: 6 min | solubility (Solubility pH 7.4): 1 µg/mL (≈ 1.56 µM) | half-life [4]: 8 min | Plasma Stability (37° C.) % Remaining (3-3.5 hours) rat [7]: 0%

CCOC(=O)CNC(=O)Oc1ccc2c(c1)O/C(=C\c1cn(CCCN(C)C)c3ccc(OC)cc13)C2=O [Example 25, ethyl N-({[(2Z)-2-({1-[3-(dimethylamino)propyl]-5-methoxy-1H-indol-3-yl}methylene)-3-oxo-2,3-dihydro-1-benzofuran-6-yl]oxy}carbonyl)glycinate]
IC50 (mTOR; read-out: mTOR Mean IC50): 0.61 µM | IC50 (PI3K alpha): 0.086 µM | PAMPA Pe [1]: 0 10e−6 cm/s | solubility (Solubility pH 7.4): > 100 µg/mL

COc1ccc2[nH]c(-c3ccccc3)c(/C=C3\Oc4cc(OC(=O)N(C)C)cc(OC(=O)N(C)C)c4C3=O)c2c1 [Example 30, (2Z)-2-[(5-methoxy-2-phenyl-1H-indol-3-yl)methylene]-3-oxo-2,3-dihydro-1-benzofuran-4,6-diyl bis(dimethylcarbamate)]
IC50 (PI3K alpha): 2.22 µM | PAMPA Pe [1]: 0 10e−6 cm/s | half-life [2, 12]: > 30 min | plasma prodrug concentration ([8]; 0.5 h): 29 ng, ml | plasma prodrug concentration ([8]; 2 h): 65 ng, ml | plasma prodrug concentration ([8]; 6 h (third value)): 20 ng, ml | half-life [3, 10]: < 1 min | half-life [4]: 19 min | Papp A→B [5]: 0.19 ×10⁻⁶ cm/s | Papp B→A [5]: 0.04 ×10⁻⁶ cm/s

COc1ccc2[nH]c(-c3ccccc3)c(/C=C3\Oc4cc(OC(=O)N(C(C)C)C(C)C)cc(OC(=O)N(C(C)C)C(C)C)c4C3=O)c2c1 [Example 31, (2Z)-2-[(5-methoxy-2-phenyl-1H-indol-3-yl)methylene]-3-oxo-2,3-dihydro-1-benzofuran-4,6-diyl bis(diisopropylcarbamate)]
IC50 (mTOR; read-out: mTOR Mean IC50): 0.51 µM | IC50 (PI3K alpha; read-out: PI3K alpha Mean IC50): 0.27 µM | PAMPA Pe [1]: 0 10e−6 cm/s | half-life [2, 12]: > 30 min | half-life [3, 10]: 7 min | half-life [4]: 9 min

CCOP(=O)(OCC)Oc1cc2c(c(OP(=O)(OCC)OCC)c1)C(=O)/C(=C/c1cn(CCCN(C)C)c3ccc(OC)cc13)O2 [Example 33, (2Z)-2-({1-[3-(dimethylamino)propyl]-5-methoxy-1H-indol-3-yl}methylene)-3-oxo-2,3-dihydro-1-benzofuran-4,6-diyl tetraethyl bis(phosphate)]
IC50 (PI3K alpha): > 10 µM | PAMPA Pe [1]: 0.25 10e−6 cm/s | half-life [2, 12]: 15 min | half-life [3, 10]: 4 min | solubility (Solubility pH 7.4): 59 µg/mL | half-life [4]: 12 min

COc1ccc2c(c1)c(/C=C1\Oc3cc(OC(=O)N4CCN(Cc5ccccc5)CC4)cc(OC(=O)N4CCN(Cc5ccccc5)CC4)c3C1=O)cn2CCCN(C)C [Example 37, (2Z)-2-({1-[3-(dimethylamino)propyl]-5-methoxy-1H-indol-3-yl}methylene)-3-oxo-2,3-dihydro-1-benzofuran-4,6-diyl bis(4-benzylpiperazine-1-carboxylate)]
IC50 (mTOR; read-out: mTOR Mean IC50): 1.65 µM | IC50 (PI3K alpha): > 10 µM | PAMPA Pe [1]: 0 10e−6 cm/s

COc1ccc2c(c1)c(/C=C1\Oc3cc(O)cc(OC(=O)N(C)C)c3C1=O)cn2CCCN(C)C [Example 40, (2Z)-2-({1-[3-(dimethylamino)propyl]-5-methoxy-1H-indol-3-yl}methylene)-6-hydroxy-3-oxo-2,3-dihydro-1-benzofuran-4-yl dimethylcarbamate]
IC50 (mTOR; read-out: mTOR Mean IC50): > 20 µM | IC50 (PI3K alpha): 5.88 µM

COc1ccc2c(c1)c(/C=C1\Oc3cc(OC(=O)N(C)C)cc(O)c3C1=O)c(C)n2CCN1CCN(C)CC1 [Example 41, (2Z)-4-hydroxy-2-({5-methoxy-2-methyl-1-[2-(4-methylpiperazin-1-yl)ethyl]-1H-indol-3-yl}methylene)-3-oxo-2,3-dihydro-1-benzofuran-6-yldimethylcarbamate]
IC50 (mTOR): 13 µM | IC50 (PI3K alpha): 1.13 µM

COc1ccc2c(c1)c(/C=C1\Oc3cc(OC(=O)N(C)C)cc(O)c3C1=O)cn2CCCN(C)C [Example 42, (2Z)-2-({1-[3-(dimethylamino)propyl]-5-methoxy-1H-indol-3-yl}methylene)-4-hydroxy-3-oxo-2,3-dihydro-1-benzofuran-6-yl dimethylcarbamate]
IC50 (mTOR; read-out: mTOR Mean IC50): > 20 µM | IC50 (PI3K alpha): 2.8 µM
